Key:
[1] = system: HCV replicon cells (Huh-7 ET cells); assay type: cell-based, human; details: Ratio of CC50/IC50 in HCV replicon cells (Huh-7 ET cells); average TI when tested more than once
[2] = Stability in human and rat microsomes; assay type: in vitro ADME; details: human and rat hepatic microsomes; relative to compound E / other thiophene analogues
Experimental: Incubations containing no NADPH and no UDPGA are used as controls. The compounds are incubated at 50 uM for 0 and 60 minutes. The reaction is stopped by the addition of an equal volume of acetonitrile. The mixture is centrifuged and the supernatant is analyzed by HPLC/UV or MS/MS. The percentage parent remaining corresponds to the area of the parent compound in the 60-minute incubation versus the area of the parent compound in a 0-minute incubation ×100.

[3] = system: CYP3A4; assay: Induction in cultured human hepatocytes (CYP3A4 activity and mRNA); assay type: in vitro ADME; details: relative to compound E / other thiophene analogues

Row | Compound | TI [1] | microsome stability profile [2] | induction profile in human hepatocytes [3]
1 | CC1CCC(C(=O)N(c2cc(-c3ccccc3)sc2C(=O)O)C2CCC(n3ccnn3)CC2)CC1 (stereo not shown) [F, reference compound] | ++ (++: 100-1000) |  | 
2 | CC1CCC(C(=O)N(c2cc(-c3ccccc3)sc2C(=O)O)C(C)C)CC1 (stereo not shown) [A, reference compound] | ++ (++: 100-1000) |  | 
3 | CC1CCC(C(=O)N(c2cc(C#CC(C)(C)C)sc2C(=O)O)C2CCC(n3ccnn3)CC2)CC1 (stereo not drawn) [Compound 7, 5-(3,3-DIMETHYL-BUT-1-YNYL)-3-[(TRANS-4-METHYL-CYCLOHEXANECARBONYL)-(4-CIS-[1,2,3]TRIAZOL-1-YL-CYCLOHEXYL)-AMINO]-THIOPHENE-2-CARBOXYLIC ACID] | +++++ (+++++: 4000-6000) |  | 
4 | CC(C)(C)C#Cc1cc(N(C(=O)[C@H]2CC[C@H](C)CC2)[C@H]2CC[C@H](F)CC2)c(C(=O)O)s1 [Compound 9, 5-(3,3-DIMETHYL-BUT-1-YNYL)-3-[(TRANS-4-FLUORO-CYCLOHEXYL)-(TRANS-4-METHYL-CYCLOHEXANECARBONYL)-AMINO]-THIOPHENE-2-CARBOXYLIC ACID] | ++++++ (++++++: >6000) |  | 
5 | CC(C)(C)C#Cc1cc(N(C(=O)[C@H]2CC[C@H](C)CC2)[C@H]2CC[C@H](n3ccnn3)CC2)c(C(=O)O)s1 [Compound 8, 5-(3,3-DIMETHYL-BUT-1-YNYL)-3-[(TRANS-4-METHYL-CYCLOHEXANECARBONYL)-(TRANS-4-[1,2,3]TRIAZOL-1-YL-CYCLOHEXYL)-AMINO]-THIOPHENE-2-CARBOXYLIC ACID] | ++++++ (++++++: >6000) |  | 
6 | CO[C@H]1CC[C@H](N(c2cc(C#CC(C)(C)C)sc2C(=O)O)C(=O)[C@H]2CC[C@H](C)CC2)CC1 [Compound 2, 5-(3,3-DIMETHYL-BUT-1-YNYL)-3-[(TRANS-4-METHOXY-CYCLOHEXYL)-(TRANS-4-METHYL-CYCLOHEXANECARBONYL)-AMINO]-THIOPHENE-2-CARBOXYLIC ACID] | +++ (+++: 1000-2000) | better | better
7 | CC1CCC(C(=O)N(c2cc(-c3ccccc3)sc2C(=O)O)C2CCC(n3cncn3)CC2)CC1 (stereo not shown) [G, reference compound] | +++ (+++: 1000-2000) |  | 
8 | CC(C)(C)C#Cc1cc(N(C(=O)[C@H]2CC[C@H](C)CC2)[C@H]2CC[C@H](n3cncn3)CC2)c(C(=O)O)s1 [Compound 4, 5-(3,3-DIMETHYL-BUT-1-YNYL)-3-[(TRANS-4-METHYL-CYCLOHEXANECARBONYL)-(TRANS-4-[1,2,4]TRIAZOL-1-YL-CYCLOHEXYL)-AMINO]-THIOPHENE-2-CARBOXYLIC ACID] | ++++ (++++: 2000-4000) |  | 
9 | CC(C)(C)C#Cc1cc(N(C(=O)[C@H]2CC[C@H](C)CC2)[C@H]2CC[C@@H](n3cncn3)CC2)c(C(=O)O)s1 [Compound 3, 5-(3,3-DIMETHYL-BUT-1-YNYL)-3-[(TRANS-4-METHYL-CYCLOHEXANECARBONYL)-(CIS-4-[1,2,4]TRIAZOL-1-YL-CYCLOHEXYL)-AMINO]-THIOPHENE-2-CARBOXYLIC ACID] | ++++++ (++++++: >6000) |  | 
10 | CC(C)(C)C#Cc1cc(N(C(=O)[C@H]2CC[C@H](C)CC2)[C@H]2CC[C@H](O)CC2)c(C(=O)O)s1 [Compound 1, 5-(3,3-DIMETHYL-BUT-1-YNYL)-3-[(TRANS-4-HYDROXY-CYCLOHEXYL)-(TRANS-4-METHYL-CYCLOHEXANECARBONYL)-AMINO]-THIOPHENE-2-CARBOXYLIC ACID] | ++++++ (++++++: >6000) | better | better
11 | COC1CCC(N(C(=O)C2CCC(C)CC2)c2cc(-c3ccccc3)sc2C(=O)O)CC1 (stereo not shown) [C, reference compound] | + (+: <100) |  | 
12 | CC1CCC(C(=O)N(c2cc(C#CC(C)(C)C)sc2C(=O)O)C(C)C)CC1 (stereo not shown) [E, reference compound] | +++ (+++: 1000-2000) |  | 
13 | CC1CCC(C(=O)N(c2cc(-c3ccccc3)sc2C(=O)O)C2CCC(F)CC2)CC1 (stereo not shown) [H, reference compound] | + (+: <100) |  | 
14 | CC1CCC(C(=O)N(c2cc(-c3ccccc3)sc2C(=O)O)C2CCC(O)CC2)CC1 (stereo not shown) [B, reference compound] | ++ (++: 100-1000) |  | 
15 | CC(C)(C)C#Cc1cc(N(C(=O)[C@H]2CC[C@H](C)CC2)[C@H]2CC[C@@H](O)CC2)c(C(=O)O)s1 [Compound 5, 5-(3,3-DIMETHYL-BUT-1-YNYL)-3-[(CIS-4-HYDROXY-CYCLOHEXYL)-(TRANS-4-METHYL-CYCLOHEXANECARBONYL)-AMINO]-THIOPHENE-2-CARBOXYLIC ACID] | ++++++ (++++++: >6000) |  | 
